# Laboratory results as given in patent US7662767B2, “Polynucleotide intercalator interceptors and inhibitors” (Materials Evolution and Development USA, Inc., priority 2000, dated 2010).
# Tests used:
# [1] = Fluorescence of 2 μM acridine orange solution with NaCl, caffeine and/or dsDNA
# Experimental: The addition of salt could possibly affect the Kassoc values of AO and the other reactants by modifying the charge on the reactants and/or decreasing the influence of water molecules. To minimize AO self-association, i.e. dimerization, a relatively low concentration of AO [2 μM] may be used. The interaction between reactants was analyzed by spectrofluorometric methods at λex 485 nm and monitored at λem 530 nm (green).
# Solutions of 2 μM AO alone and in various combinations with 150 mM NaCl, 5 mM CAF, 2 mM DNA were studied. Table 3-2 summarizes the results and the statistical analysis for differences between means.
# In Table 3-2, fluorescence (λex=485 nm and λem=530 nm) was measured for AO [2 μM] in the absence of, and in the presence of, NaCl [150 mM], caffeine [5 mM], and DNA [2 mM] alone or in combination. Significant differences were found by one-way ANOVA (p≦0.05). […] It is noted that n=3 unless denoted by an * which indicates n=4.
# Spectrofluorometric analyses at λex 485 nm and λem 530 nm were performed on solutions of 2:M AO in combination with 5 mM CAF and 2 mM dsDNA, with and without 150 mM NaCl. […] Note that CAF had no significant effect on the fluorescence of the AO solution when in the presence of NaCl (SNK letter designation “B”).
# [2] = tested on: chicken erythrocyte nuclear chromatin; assay: Acridine orange staining of chicken erythrocyte nuclear chromatin, fluorescence microscopy; assay type: binding
# Experimental: Chicken erythrocytes were chosen as one implementation of this invention. These nucleated cells have mature erythrocytes with no RNA. Blood was taken from a mature chicken. The blood was drawn from a wing vein into 50 ml glass heparin containing tubes to prevent clotting. This blood was used to make smears on microscope slides. These blood smeared slides were allowed to dry at room temperature and were stored in microscope boxes.
# Solutions of AO were prepared at 5 mM and 10 μM concentrations in distilled water. Microscope slides smeared with chicken erythrocytes were stained by placing the slide into a glass slide holder containing 50 ml of AO solution under static conditions from 2 min to 30 min, followed by three 10 second rinses in distilled water before drying at room temperature. […] Processed slides were stored in the dark then read and photomicrographs taken (Zeiss Model 63 Microscope, 1600 ASA Kodak film) soon after removal from the dark to avoid photobleaching.
# In the example shown in Table 4-1, the chicken erythrocytes were smeared and dried on a microscope slide prior to exposure to two different concentrations of AO (10 μM and 5 mM), rinsed with distilled water, and allowed to dry. Erythrocytes were examined with fluorescence microscopy and the color of the nuclei recorded. […]
# [3] = tested on: chicken erythrocyte nuclear chromatin; assay: Removal of acridine orange from stained chicken erythrocyte nuclear chromatin by xanthine rinse, fluorescence microscopy; conditions: for Nuclear color, Stain: before xanthine rinse; for Nuclear color, Re-stain: re-stained after xanthine rinse; for Nuclear color, After Rinse: xanthine rinse 50 mM, 1 hour, static
# Experimental: Experiments were conducted to determine whether xanthines with known binding affinities to AO could compete with nuclear DNA for binding to AO and, therefore, be able to remove AO from its intercalation position within nuclear chromatin. Fluorescence microscopy was used to observe the fluorescent color produced by the AO-DNA complex following the staining of chicken erythrocyte nuclear chromatin with AO at both 5 μM and 5 mM.
# Microscope slides smeared with chicken erythrocytes were stained with either 5 μM or 5 mM AO for a period of 30 minutes followed by three 10 second rinses in distilled water before drying at room temperature. Slides were then examined by fluorescence microscopy using a, Zeiss Model 63 Microscope with a xenon source fluorescent emitter. In some instances, a blocking filter was used to filter out fluorescence emission in the red and higher wavelengths. Photomicrographs were taken with Kodak Gold 35 mm ASA 1600 speed film, developed and color prints made. Comparative photomicrographs were taken at the same magnification and at the same exposure time. Selected photomicrographs were digitally scanned (Hewitt-Packard, Model 4L Scanner, Palo Alto, Calif.) and stored on 100 MB ZIP cartridges.
# Slides were again examined by fluorescence microscopy and fluorescence color of the nuclei recorded. Slides were again stained with 5 mM AO then re-examined by fluorescence microscopy and fluorescence color of the nuclei recorded.
# In the example shown in Table 4-3, the chicken erythrocytes were smeared and dried on a microscope slide prior to exposure to the AO solution for 30 minutes followed by water rinses to remove excess AO. Following drying, each slide was observed under fluorescence microscopy then placed in one of the xanthine solutions (50 ml volume) for 1 hour under static conditions, rinsed with water, then dried prior to being observed by fluorescence microscopy without a red blocking filter. Finally, each slide was restained following the initial staining procedures and again observed by fluorescence microscopy. Kassoc values are taken from Table 2-1 and are expressed in M^−1.
# [4] = 2 μM AO, caffeine 5 mM, dsDNA 2 mM where present, λex 485 nm, λem 530 nm
SMILES,"Fluorescence With NaCl [150 mM] Mean ± S.E. [1, 4]","Fluorescence Without NaCl Mean ± S.E. [1, 4]",Fluorescent Color ([2]; AO 10 μM),Fluorescent Color ([2]; AO 5 mM),effect of xanthine rinse on fluorescence of AO stained nuclear chromatin ([3]; 50 mM xanthine rinse),"Nuclear color, Stain ([3]; AO [5 μM] 30 minutes)","Nuclear color, Re-stain ([3]; AO [5 μM])","Nuclear color, After Rinse ([3]; AO [5 μM])","Nuclear color, Stain ([3]; AO [5 mM] 30 minutes)","Nuclear color, Re-stain ([3]; AO [5 mM])","Nuclear color, After Rinse ([3]; AO [5 mM])","increase of fluorescence of 2 μM AO at 530 nm by addition ([1]; 2 mM DNA or 5 mM CAF, without NaCl) [%]",increase in fluorescence intensity of AO by addition ([1]; DNA or CAF in the presence of 150 mM NaCl) [%]
"CN(C)c1ccc2cc3ccc(N(C)C)cc3nc2c1.Cl [AO, 3,6-bis[dimethylamino]acridine hydrochloride]",635.5 ± 17.7 (B),514.0 ± 6.5 (A) ^,Green,Red,,,,,,,,,
"Cn1c(=O)c2[nH]cnc2n(C)c1=O.NCCN [1,3-dimethyl xanthine ethylenediamine]",,,,,"removal of most, if not all, green and red color",Green,Green,None,Red,Red,None,,
"Cn1c(=O)c2c(ncn2C)n(C)c1=O [1,3,7-trimethyl xanthine (caffeine), 1,3,7-trimethyl xanthine]",,,,,,Green,Green,None,Red,Red,Red-,29,36
